Holding throughout (type): cell-based
Assay [1] has as its system J774A.1 (Mouse BALB/c monocyte macrophage cell line) cells. As to the kind of experiment: LPS-induced TNF-α secretion inhibition in J774A.1 cells. As to conditions: J774.A1, 1 μM compound, graded compared to taurodeoxycholic acid (positive control), read-out: TNF-α production inhibition grade. The essentials:
(§1)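 Grades (A >100%, B 50–100%, C 20–50%, D <20%) express cytokine suppression by 1 μM compound relative to taurodeoxycholic acid. LPS-induced TNF-α and LPS+ATP-induced IL-1β secretion were measured in murine J774A.1 macrophage cells.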

Assay [2] concerns U937 cells (human monocytic cell line). As to the kind of experiment: Pam2CSK4-induced TNF-α secretion inhibition in PMA-differentiated U937 cells. As to conditions: U-937, U937 cells differentiated with PMA, read-out: TNF-α production inhibition grade (IC50). An outline of the steps:
(§2)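 Inhibition is given as IC50 (μM) in A-D bands, using distinct thresholds for TNF-α and for IL-1β. Secretion followed Pam2CSK4 stimulation (TNF-α) or BzATP stimulation (IL-1β) of compound-pretreated, PMA-differentiated U937 macrophages.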

The test system of assay [3] is J774A.1 (Mouse BALB/c monocyte macrophage cell line) cells. The assay can be described thus: LPS+ATP-induced IL-1β secretion inhibition in J774A.1 cells. Conditions: J774.A1, 1 μM compound, graded compared to taurodeoxycholic acid (positive control), read-out: IL-1β production inhibition grade. The essentials: as §1
Assay [4] concerns U937 cells (human monocytic cell line). As to the kind of experiment: BzATP-induced IL-1β secretion inhibition in PMA-differentiated U937 cells. Conditions: U-937, U937 cells differentiated with PMA, read-out: IL-1β production inhibition grade (IC50). An outline of the steps: as §2

Structures are written as SMILES.

With `CC(C)C[C@H](CS(=O)(=O)O)NC(=O)CC[C@@H](C)[C@H]1CC[C@H]2[C@@H]3CC[C@@H]4C[C@H](O)CC[C@]4(C)[C@H]3CC[C@]12C` [NC10087], the inhibition at 1 µM in assay [1] and in assay [3] was more than 100% each time. The IC50 in assay [2] is 500 to 1000 nM; in assay [4], less than 50 nM.
Turning to `C[C@H](CCC(=O)N1CC(S(=O)(=O)O)C1)[C@H]1CC[C@H]2[C@@H]3CC[C@@H]4CC(=O)CC[C@]4(C)[C@H]3CC[C@]12C` [NC30012], the figures for the inhibition at 1 µM in assay [1] and in assay [3] were less than 20% and 20 to 50%, respectively. For the same compound, the IC50 in assay [2] is not below 2000 nM; in assay [4], not below 200 nM.
The corresponding values for `CC(C)[C@@H](CS(=O)(=O)O)NC(=O)CC[C@@H](C)[C@H]1CC[C@H]2[C@@H]3CC[C@@H]4C[C@H](O)CC[C@]4(C)[C@H]3CC[C@]12C` [NC10072] are less than 20%, 20 to 50%, less than 500 nM and less than 50 nM.
The like results for `C[C@H](CCC(=O)N(CCS(=O)(=O)O)C1CCCCC1)[C@H]1CC[C@H]2[C@@H]3CC[C@@H]4C[C@H](O)CC[C@]4(C)[C@H]3CC[C@]12C` [NC10016] were, in that order, more than 100%, more than 100%, less than 500 nM and less than 50 nM.
The corresponding values for `C[C@H](CCC(=O)NC[C@@H](C)S(=O)(=O)O)[C@H]1CC[C@H]2[C@@H]3CC[C@@H]4CC(=O)CC[C@]4(C)[C@H]3CC[C@]12C` [NC30023] are more than 100%, 50 to 100%, not below 2000 nM and not below 200 nM.
Consider `C[C@H](CCC(=O)N[C@H](CO)CS(=O)(=O)O)[C@H]1CC[C@H]2[C@@H]3[C@H](O)C[C@@H]4C[C@H](O)CC[C@]4(C)[C@H]3C[C@H](O)[C@]12C` [NC20025], for which the inhibition at 1 µM in assay [1] and in assay [3] was less than 20% in each case. For the same compound, the IC50 in assay [2] was not below 2000 nM; in assay [4], not below 200 nM.
For the compound `C[C@H](CCC(=O)N1CCC(CCS(=O)(=O)O)CC1)[C@H]1CC[C@H]2[C@@H]3CC[C@@H]4C[C@H](O)CC[C@]4(C)[C@H]3C[C@H](O)[C@]12C` [NC10008], the inhibition at 1 µM in assay [1] and in assay [3] was more than 100% each time. In addition, the IC50 is less than 500 nM in assay [2] and less than 50 nM in assay [4].

As usually defined, the inhibition is the change of the read-out against control, counted positive when it falls. The IC50 is the concentration at which inhibition is half-maximal.

These data come from patent US20240391948A1, “NOVEL COMPOUND THAT INHIBITS TNF-ALPHA GENERATION AND INFLAMMASOME ACTIVITY AND PREPARATION METHOD THEREFOR” (SHAPERON INC., priority 2021, published 2024).
